Measurements reported in patent EP0056560A1, “Active antibiotic compositions, process for their manufacture and process for the antibiotic activity of antibiotics” (CIBA-GEIGY AG, priority 1981, dated 1982).

Tests used:
Test in all cases: Mouse protection test: i.p. infection, s.c. treatment with the antibiotic alone or combined with muramyl peptide, survivors counted
Assay type in all cases: in vivo, weisse Laboratoriums-Mäuse
Salmonella typhimurium = conditions: mice infected i.p. with 40 x 10^4 cfu Salmonella typhimurium; Cefroxadin s.c. immediately and 3 h after infection, combined with 10 mg/kg N-Acetyl-muramyl-L-alanyl-D-isoglutaminyl-L-alanyl-2-(1',2'-dipalmitoyl-sn-glycero-3'-hydroxyphosphoryloxy)-äthylamid, compared with Cefroxadin alone; survivors counted after 4 or 10 days
Text: (§1) Die hohe antibiotische Wirkung der neuen Präparate und des neuen Verfahrens kann durch "in vivo"-Versuche nachgewiesen werden, die an verschiedenen Tierarten, insbesondere an Säugetieren, wie Mäusen, durchgeführt werden. Dazu infiziert man sie mit einer letalen oder subletalen Dosis eines pathogenen Mikroorganismus und gibt dann das genannte neue Präparat bzw. die einzelnen Dosen an Muramylpeptid und Antibiotikum. Die Wirkung wird als ED50 bestimmt, das ist diejenige Dosis, bei der 50% der Tiere überleben.
(§2) Beispiel 4: Man infiziert weisse Laboratoriums-Mäuse auf i.p. Wege mit 2 x 10^4 cfu (colony forming units) Klebsiella pneumoniae, 0,1 x 10^4 cfu Pasteurella multocida oder 40 x 10^4 cfu Salmonella typhimurium in Salzlösung, so dass 90-100Z der nicht behandelten Kontrolltiere innerhalb von 48 Stunden getötet werden. Unmittelbar, sowie 3 Stunden nach der Infektion werden Gruppen zu je 10 Mäusen mit Cefroxadin, sowohl allein (ohne Muramylpeptid) als auch in Kombination mit 10 mg/kg N-Acetyl-muramyl-L-alanyl-D-isoglutaminyl-L-alanyl-2-(1',2'-dipalmitoyl-sn-glycero-3'-hydroxyphosphoryloxy)-äthylamid behandelt, wobei dieselben zweimal in Form wässriger Lösungen oder Suspensionen auf subkutanem Weg verabreicht werden. Nach 4 bzw. 10 Tagen nach erfolgter Infektion wurden die überlebenden Tiere gezählt.

Pasteurella multocida = conditions: mice infected i.p. with 0,1 x 10^4 cfu Pasteurella multocida; Cefroxadin s.c. immediately and 3 h after infection, combined with 10 mg/kg N-Acetyl-muramyl-L-alanyl-D-isoglutaminyl-L-alanyl-2-(1',2'-dipalmitoyl-sn-glycero-3'-hydroxyphosphoryloxy)-äthylamid, compared with Cefroxadin alone; survivors counted after 4 or 10 days
Text: as §1, §2

Klebsiella pneumoniae = conditions: mice infected i.p. with 2 x 10^4 cfu Klebsiella pneumoniae; Cefroxadin s.c. immediately and 3 h after infection, combined with 10 mg/kg N-Acetyl-muramyl-L-alanyl-D-isoglutaminyl-L-alanyl-2-(1',2'-dipalmitoyl-sn-glycero-3'-hydroxyphosphoryloxy)-äthylamid, compared with Cefroxadin alone; survivors counted after 4 or 10 days
Text: as §1, §2

Measured: ED50-Werte für das Antibiotikum bei kombinierter Gabe mit dem Muramylpeptid

COC1=C(C(=O)O)N2C(=O)[C@@H](NC(=O)[C@H](N)C3=CCC=CC3)[C@H]2SC1 [Cefroxadin, 7ß-[D-2-amino-2-(1,4-cyclohexadienyl)-acetamido]-3-methoxy-3-cephem-4-carbonsäure]
um ein Mehrfaches niedriger: all assays above
